Molecular target: Protein kinase C beta type (Mus musculus) (UniProt P68404)
Assay: Inhibition of PKCbeta in mouse B cells assessed as reduction in IgM-stimulated cell proliferation

Chain of Protein kinase C beta type (Mus musculus) (P68404 whole entry, looked up): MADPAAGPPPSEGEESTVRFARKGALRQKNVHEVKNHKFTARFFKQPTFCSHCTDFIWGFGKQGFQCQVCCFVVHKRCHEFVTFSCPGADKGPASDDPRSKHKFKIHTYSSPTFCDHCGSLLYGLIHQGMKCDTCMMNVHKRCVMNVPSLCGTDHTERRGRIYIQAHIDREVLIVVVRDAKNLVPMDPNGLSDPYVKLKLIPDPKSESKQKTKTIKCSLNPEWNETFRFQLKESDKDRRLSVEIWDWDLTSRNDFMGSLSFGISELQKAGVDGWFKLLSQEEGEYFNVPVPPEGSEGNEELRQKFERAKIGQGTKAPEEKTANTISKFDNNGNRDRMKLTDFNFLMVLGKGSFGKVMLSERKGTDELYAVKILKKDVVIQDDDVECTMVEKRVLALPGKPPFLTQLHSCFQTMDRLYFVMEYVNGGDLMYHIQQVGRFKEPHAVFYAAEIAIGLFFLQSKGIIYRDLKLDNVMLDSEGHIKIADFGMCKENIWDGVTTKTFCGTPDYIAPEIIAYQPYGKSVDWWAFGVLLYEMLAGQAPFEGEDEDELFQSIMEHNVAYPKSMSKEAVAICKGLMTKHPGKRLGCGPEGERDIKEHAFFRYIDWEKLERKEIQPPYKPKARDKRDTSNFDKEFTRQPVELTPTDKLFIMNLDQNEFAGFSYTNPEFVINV

IC50 [nM]	Compound
296	CN(C)Cc1ccc2ccc(Cl)c(C3=C(c4cn(C)c5ccccc45)C(=O)NC3=O)c2c1
234	CN1CCN(c2nc(C3=C(c4c[nH]c5ccccc45)C(=O)NC3=O)c3ccccc3n2)CC1 [Sotrastaurin]

From BindingDB's records for doi:10.1016/j.bmcl.2017.01.038 (Novartis Institutes For Biomedical Research, 2017)
